This note sets out measurements from patent US20240173332A1, “BENZO[…] TREATING OR PREVENTING RESPIRATORY SYNCYTIAL VIRUS INFECTION” (Pfizer Inc., priority 2021, published 2024).

The test system of one series is RSV A2. Description: RSV plaque reduction assay in Hep-G2 cells. The series is classed as cell-based, respiratory syncytial virus (RSV). As to conditions: Hep-G2 cells, RSV A2, 2 days, mean of at least two experiments, read-out: RSV A2 Plaque EC50. On the procedure:
Compounds were subjected to RSV plaque reduction assays according to the following protocol. Plaque EC50 and cell toxicity CC50 values are a mean of at least two experiments and figures are rounded to whole units.
Hep-G2 cells (ECACC, 85011430) were passaged in flasks and seeded in 24-well plates in DMEM containing antibiotics and supplemented with 10% FBS. During inoculation and subsequent incubation, cells were cultured in DMEM containing 2% FBS. 100 plaque forming unit/well of RSV (RSV A2 ECACC, 0709161v) was mixed with eight serial dilutions of compound. Subsequently, 100 μL of the virus/compound mixtures was added to confluent Hep-G2 cell monolayers. The cells and virus/compound mixtures were incubated at 37° C. in a humidified 5% CO2 incubator for 2 h prior to removal of the inoculum and addition of 1 mL of overlay (DMEM containing 2% FBS and 0.8% CMC) containing compound dilutions. The cells and were incubated at 37° C. in a humidified 5% CO2 incubator for 2 days.
Cells were washed with PBS before adding 75/25% v/v EtOH/MeOH, for 3 min. Fixative was removed and plates were washed with PBS. A pre-titrated amount of the primary antibody was added in 200 μL PBS/2% milk powder, and plates incubated for 90 min at 37° C. The plates were washed 3 times with PBS/0.05% Tween20 before addition of rabbit anti-goat horse radish peroxidase in 200 μL PBS/2% milk powder, and incubated for 1 h at 37° C. Following three wash steps with PBS/0.05% Tween20, 200 μL ready-to-use TrueBlue was added and plates were incubated at rt for 10-15 min before washing with water. After removal of water, plates were air-dried in the dark. Plates were scanned and analysed using the Immunospot S6 Macro analyser, which is equipped with BioSpot analysis software for counting immunostained plaques (virospots). Plaque counts were used to calculate % infection relative to the mean of the plaque count in the virus control wells for RSV. The EC50 value was calculated as 50% reduction in signal, respectively, by interpolation of inhibition curves fitted with a 4-parameter nonlinear regression with a variable slope in Dotmatics. Plaque EC50 and cell toxicity CC50 values are a mean of at least two experiments and figures are rounded to whole units.

The nature of another series: Cell cytotoxicity CC50. As to conditions: human, Hep-G2 cells; mean of at least two experiments unless (n = 1). The series is classed as cell-based.
A short description of series [1]: Liver microsomal stability, rat. The series is classed as in vitro ADME. Particulars: 1 μM compound, NADPH; for half-life at 1 μM: pooled liver microsomes, pH 7.4, 0.5 mg/mL protein, read-out: Liver Microsomal Stability t1/2. As for the experimental part:
(§1) Compounds were subjected to the following assays to investigate liver microsomal stability and hepatocyte stability.
(§2) Pooled liver microsomes were purchased from a reputable commercial supplier and stored at −80° C. prior to use. Microsomes (final protein concentration 0.5 mg/mL), 0.1 M phosphate buffer pH 7.4 and test compound (final substrate concentration 1 μM; final DMSO concentration 0.25%) were pre-incubated at 37° C. prior to the addition of NADPH (final concentration 1 mM) to initiate the reaction. The final incubation volume was 50 μL. A control incubation was included for each compound tested where 0.1 M phosphate buffer pH 7.4 was added instead of NADPH (minus NADPH). Two control compounds were included with each species. All incubations were performed singularly for each test compound. Each compound was incubated for 0, 5, 15, 30 and 45 min. The control (minus NADPH) was incubated for 45 min only. The reactions were stopped by transferring incubate into acetonitrile at the appropriate time points, in a 1:3 ratio. The termination plates are centrifuged at 3,000 rpm for 20 min at 4° C. to precipitate the protein. Following protein precipitation, the sample supernatants were combined in cassettes of up to 4 compounds, internal standard added, and samples analysed by LC-MS/MS. From a plot of In peak area ratio (compound peak area/internal standard peak area) against time, the gradient of the line was determined. Subsequently, half-life (t1/2) and intrinsic clearance (CLint) were calculated.
In general terms: Liver microsomes are vesicles of endoplasmic reticulum, rich in cytochrome P450 enzymes.

The nature of series [2]: Liver microsomal stability, dog. Format: in vitro ADME. As to conditions: 1 μM compound, NADPH; for half-life at 1 μM: pooled liver microsomes, pH 7.4, 0.5 mg/mL protein, read-out: Liver Microsomal Stability t1/2. On the procedure:
as §1, §2

Series [3] can be described thus: Liver microsomal stability, human. Format: in vitro ADME. As to conditions: 1 μM compound, NADPH; for half-life at 1 μM: pooled liver microsomes, pH 7.4, 0.5 mg/mL protein, read-out: Liver Microsomal Stability t1/2. As for the experimental part:
as §1, §2

The next series relates to Hep-G2 cells. Description: Cell cytotoxicity CC50. The series is classed as cell-based. As to conditions: mean of at least two experiments unless (n = 1).
Setting [4] is: human respiratory syncytial virus, HepG2, 48 h.

Structures can show the parent of a compound that is named as a salt. Where two headings read alike, the source gives them in different places.

One may read the EC50 as the concentration that produces a half-maximal response. The CC50 is the concentration at which the toxic effect on the cells reaches its halfway point. A low value points to greater toxicity to the cells.

In the case of `O=C(N[C@H]1N=C(c2ccccc2)c2cccc(F)c2NC1=O)c1c(-c2cnn(CC(F)(F)F)c2)nn2cccnc12` [Example 3, N-[(3S)-9-fluoro-2-oxo-5-phenyl-1,3-dihydro-1,4-benzodiazepin-3-yl]-2-[1-(2,2,2-trifluoroethyl)pyrazol-4-yl]pyrazolo[1,5-a]pyrimidine-3-carboxamide], the half-maximal effective concentration (EC50) with RSV A2 (setting [4]) worked out at 66 nM. For the same compound, the cytotoxic concentration (CC50) in the series “Cell cytotoxicity CC50” is more than 25000 nM. For the same compound, the half-life at 1 μM in series [1] is 3.48 h; in series [2] it was 1.78 h; in series [3] it was more than 2.33 h.
With `CC(C)(O)c1ccc(-c2nn3cccnc3c2C(=O)N[C@H]2N=C(c3ccccc3)c3cccc(F)c3NC2=O)c(F)c1` [Example 19, 2-[2-Fluoro-4-(2-hydroxypropan-2-yl)phenyl]-N-[(3S)-9-fluoro-2-oxo-5-phenyl-1,3-dihydro-1,4-benzodiazepin-3-yl]pyrazolo[1,5-a]pyrimidine-3-carboxamide], the half-maximal effective concentration (EC50) with RSV A2 (setting [4]) came out at 8.5 nM. Besides, the CC50 in “Cell cytotoxicity CC50” was more than 25000 nM. In addition, the values for the half-life at 1 μM in series [1], in series [2] and in series [3] were 2.43 h, 1.22 h and 2.82 h, respectively.
`CC(O)c1ccc(-c2nn3cccnc3c2C(=O)N[C@H]2N=C(c3ccccc3)c3cccc(F)c3NC2=O)c(F)c1` (single isomer, unassigned) [Example 17-2, 2-[2-Fluoro-4-[(1R*)-1-hydroxyethyl]phenyl]-N-[(3S)-9-fluoro-2-oxo-5-phenyl-1,3-dihydro-1,4-benzodiazepin-3-yl]pyrazolo[1,5-a]pyrimidine-3-carboxamide]: in the series with RSV A2, the EC50 is 7.8 nM. For the same compound, the CC50 in the series with Hep-G2 cells was more than 2500 nM.
For `CC(O)c1ccc(-c2nn3cccnc3c2C(=O)N[C@H]2N=C(c3ccccc3)c3ccccc3NC2=O)c(F)c1` (single isomer, unassigned) [Example 16-2, 2-[2-Fluoro-4-[(1R*)-1-hydroxyethyl]phenyl]-N-[(3S)-2-oxo-5-phenyl-1,3-dihydro-1,4-benzodiazepin-3-yl]pyrazolo[1,5-a]pyrimidine-3-carboxamide] the same measures were 11 nM and more than 2500 nM.
For “2-[2-Fluoro-4-(hydroxymethyl)phenyl]-N-[(3S)-2-oxo-5-phenyl-1,3-dihydro-1,4-benzodiazepin-3-yl]pyrazolo[1,5-a]pyrimidine-3-carboxamide [Example 2]”, the EC50 with RSV A2 came out at 40 nM. This compound displayed a CC50 with Hep-G2 cells of more than 25000 nM. Further, the “Liver Microsomal Stability t1/2” value in series [1] (rat liver microsomes, 0.5 mg/mL protein) was found to be 0.957 h; in series [2] (dog liver microsomes, 0.5 mg/mL protein), 0.887 h; in series [3] (human liver microsomes, 0.5 mg/mL protein) it was 1.95 h.
`O=C(N[C@H]1N=C(c2ccccc2)c2cccc(F)c2NC1=O)c1c(-c2cnn(C3CCOCC3)c2)nn2cccnc12` [Example 6, N-[(3S)-9-fluoro-2-oxo-5-phenyl-1,3-dihydro-1,4-benzodiazepin-3-yl]-2-[1-(oxan-4-yl)pyrazol-4-yl]pyrazolo[1,5-a]pyrimidine-3-carboxamide]: the concentration for a half-maximal effect (EC50) in the series on RSV A2 (setting [4]) was found to be 49 nM. The same compound came in with a half-maximal cytotoxic concentration (CC50) in “Cell cytotoxicity CC50” of more than 25000 nM. In addition, the half-life at 1 μM in series [1] came out at 1.42 h; in series [2], 2.07 h; in series [3] it was 4.32 h.
As to `NCC(=O)OCc1ccc(-c2nn3cccnc3c2C(=O)N[C@H]2N=C(c3ccccc3)c3ccccc3NC2=O)c(F)c1` [Example 29, 3-Fluoro-4-(3-{[(3S)-2-oxo-5-phenyl-1,3-dihydro-1,4-benzodiazepin-3-yl]carbamoyl}pyrazolo[1,5-a]pyrimidin-2-yl)phenyl]methyl aminoacetate hydrochloride], the EC50 in the series on RSV A2 stood at 49 nM. In addition, the 50% cytotoxic concentration (CC50) in the series on Hep-G2 cells was more than 25000 nM.
For the compound `CCn1cc(-c2nn3cccnc3c2C(=O)N[C@H]2N=C(c3ccccc3)c3cccc(F)c3NC2=O)cn1` [Example 13, 2-(1-Ethylpyrazol-4-yl)-N-[(3S)-9-fluoro-2-oxo-5-phenyl-1,3-dihydro-1,4-benzodiazepin-3-yl]pyrazolo[1,5-a]pyrimidine-3-carboxamide], the EC50 in the series with RSV A2 (setting [4]) amounted to 58 nM. Besides, in “Cell cytotoxicity CC50”, the 50% cytotoxic concentration (CC50) is more than 25000 nM. Moreover, the half-life at 1 μM in series [1] worked out at 7.52 h; in series [2], 6.82 h; in series [3], 8.93 h.
As for `CCS(=O)(=O)c1ccc(-c2nn3cccnc3c2C(=O)N[C@H]2N=C(c3ccccc3)c3cccc(F)c3NC2=O)c(F)c1` [Example 23, 2-(4-Ethylsulfonyl-2-fluorophenyl)-N-[(3S)-9-fluoro-2-oxo-5-phenyl-1,3-dihydro-1,4-benzodiazepin-3-yl]pyrazolo[1,5-a]pyrimidine-3-carboxamide], the 50% effective concentration (EC50) with RSV A2 (setting [4]) came out at 3 nM. The CC50 in “Cell cytotoxicity CC50” is more than 25000 nM.
